Reference: US20260256143A1, “HERBICIDAL COMPOSITION AND METHOD FOR CONTROLLING WEEDS” (Enko Chem, Inc., priority 2023, published 2026)
Like-named read-outs stand apart in the source and are kept apart here.

Key:
[1] = tested on: AMATU; assay: Field test, soil residual activity on bare soil (Example 71); assay type: in vivo, Amaranthus rudis; conditions: Amaranthus tuberculatus, 1008 h, 6 weeks after application, read-out: % growth inhibition AMATU
Protocol: (§1) Compound 1 and Compound 1 mixed with pyroxasulfone were tested at different field locations to evaluate the herbicides efficacy for controlling weeds by soil residual activity. All herbicide treatments were applied with a backpack CO2 pressurized sprayer at 190 L/ha volume. The herbicide applications were made to bare soil free of any vegetation to assess the efficacy of the different herbicides to suppress weeds germination and development. The herbicide treatments included Compound 1 formulated as 10% emulsified concentrate, pyroxasulfone as a commercial formulation (ZIDUA SC, BASF), or a mixture of Compound 1 and pyroxasulfone products prepared as a “tank-mix” before the field application. All herbicide field spray solution included ammonium sulfate final solution concentration of 2%. Different weeds species were assessed at the separate field locations. For each species, the herbicide efficacy to control weeds, assessed as % of suppressed weeds plants relative to the untreated control plots, was evaluated at 6 weeks after the herbicide application.

[2] = tested on: ABUTH; assay: as above; assay type: in vivo; conditions: Abutilon theophrasti, 1008 h, 6 weeks after application, read-out: % growth inhibition ABUTH
Protocol: as §1

[3] = tested on: AMAPA; assay: as above; assay type: in vivo; conditions: Amaranthus palmeri, 1008 h, 6 weeks after application, read-out: % growth inhibition AMAPA
Protocol: as §1

[4] = tested on: CHEAL; assay: as above; assay type: in vivo; conditions: Chenopodium album, 1008 h, Loc 6, pyroxasulfone 90 g a.i./ha, 6 weeks after application, read-out: % growth inhibition CHEAL
Protocol: as §1

[5] = tested on: DIGSA; assay: as above; assay type: in vivo; conditions: Digitaria sanguinalis, 1008 h, Loc 5, pyroxasulfone 90 g a.i./ha, 6 weeks after application, read-out: % growth inhibition DIGSA
Protocol: as §1

[6] = tested on: SETFA; assay: as above; assay type: in vivo; conditions: Setaria faberi, 1008 h, Loc 4, pyroxasulfone 90 g a.i./ha, 6 weeks after application, read-out: % growth inhibition SETFA
Protocol: as §1

[7] = tested on: AMAPA; assay: Greenhouse pre-emergence residual test (Example 73); assay type: in vivo, Amaranthus palmeri; conditions: Amaranthus palmeri, pre-emergence; Dose 90 g a.i./ha; 17-21 DAT; read-out: Pre-emergence percent weed growth and germination inhibition AMAPA
Protocol: (§2) Compound 1 was tested at several doses for residual weed control efficacy by itself or in combination as a tank mix with commercial herbicides. The following commercial products were used in tank mix with a 10% active emulsifiable concentrate formulation of Compound 1: S-metolachlor (Dual Magnum®, Syngenta), mesotrione (Callisto®, Syngenta), pyroxasulfone (Zidua® SC, BASF), metribuzin (Tricor DF™, United Phosphorus, Inc).
(§3) Accordingly, weed seeds were planted in 2-inch pots containing custom field soil mix (sandy loam with 3.3% organic matter, pH 7.0) and covered with a fine layer of the same soil. Three replicate pots were treated with each compound. Treatment consisting of the above formulation excluding active compound was applied as a treatment control (TC). Pots were treated with the test compound solution in a laboratory spray chamber fitted with 8003 even fan nozzles calibrated to deliver 187-200 L ha^−1 at 269 kPa. All treatments included the following inert ingredients in the final formulation; 1% Crop Oil Concentrate (v/v) (AGRI-DEX, Helena Agri) and 2.5% Ammonium sulphate (w/v). Compound 1 was incorporated into the soil by simulating rainfall equivalent to 0.2 mm using the same track sprayer. Subsequently, pots were irrigated from the bottom until weed control evaluation. Pots were placed back in the greenhouse and evaluated for percentage visual growth and germination inhibition compared to TC 17-21 days after treatment (DAT). Complete growth inhibition is represented by 100%.

[8] = tested on: AMATU; assay: as above; assay type: in vivo, Amaranthus rudis; conditions: Amaranthus tuberculatus, pre-emergence; Dose 90 g a.i./ha; 17-21 DAT; read-out: Pre-emergence percent weed growth and germination inhibition AMATU
Protocol: as §2, §3

[9] = tested on: KCHSC; assay: as above; assay type: in vivo, Bassia scoparia; conditions: Bassia scoparia, pre-emergence; Dose 90 g a.i./ha; 17-21 DAT; read-out: Pre-emergence percent weed growth and germination inhibition KCHSC
Protocol: as §2, §3

[10] = tested on: CHEAL; assay: as above; assay type: in vivo, Chenopodium album; conditions: Chenopodium album, pre-emergence; Dose 90 g a.i./ha; 17-21 DAT; read-out: Pre-emergence percent weed growth and germination inhibition CHEAL
Protocol: as §2, §3

[11] = tested on: DIGSA; assay: as above; assay type: in vivo, Digitaria sanguinalis; conditions: Digitaria sanguinalis, pre-emergence; Dose 90 g a.i./ha; 17-21 DAT; read-out: Pre-emergence percent weed growth and germination inhibition DIGSA
Protocol: as §2, §3

[12] = tested on: ALOMY; assay: as above; assay type: in vivo, Alopecurus myosuroides; conditions: Alopecurus myosuroides, pre-emergence; Dose 90 g a.i./ha; 17-21 DAT; read-out: Pre-emergence percent weed growth and germination inhibition ALOMY
Protocol: as §2, §3

[13] = tested on: ECHCG; assay: as above; assay type: in vivo, Echinochloa crus-galli; conditions: Echinochloa crus-galli, pre-emergence; Dose 90 g a.i./ha; 17-21 DAT; read-out: Pre-emergence percent weed growth and germination inhibition ECHCG
Protocol: as §2, §3

[14] = Loc 3, pyroxasulfone 90 g a.i./ha

SMILES: Cn1nc(C(F)(F)F)c(CS(=O)(=O)C2=NOC(C)(C)C2)c1OC(F)F [pyroxasulfone]
- inhibition at 90 g/ha ([1]; Loc 1, pyroxasulfone 90 g a.i./ha): 97%
- inhibition at 90 g/ha ([1]; Loc 2, pyroxasulfone 90 g a.i./ha): 74%
- inhibition at 90 g/ha [2, 14]: 44%
- inhibition at 90 g/ha ([2]; Loc 4, pyroxasulfone 90 g a.i./ha): 60%
- inhibition at 90 g/ha ([2]; Loc 6, pyroxasulfone 90 g a.i./ha): 50%
- inhibition at 90 g/ha [3, 14]: 34%
- inhibition at 90 g/ha ([3]; Loc 5, pyroxasulfone 90 g a.i./ha): 75%
- inhibition at 90 g/ha [4]: 88%
- inhibition at 90 g/ha [5]: 74%
- inhibition at 90 g/ha [6]: 77%
- inhibition at 90 g/ha [7]: 73%
- inhibition at 90 g/ha [8]: 83%
- inhibition at 90 g/ha [9]: 80%
- inhibition at 90 g/ha [10]: 100%
- inhibition at 90 g/ha [11]: 78%
- inhibition at 90 g/ha [12]: 47%
- inhibition at 90 g/ha [13]: 100%
